In patent US10105437B2, “Epitopes related to coeliac disease” (BTG International Limited, priority 2004, dated 2018):

Key:
Format in all cases: cell-based, human
[1] = system: PBMC from HLA DQ2 coeliac disease subjects; test: Interferon gamma ELISPOT, combitope comparison after wheat, rye or barley challenge; settings: for median ELISPOT response as percent of response to Combitope: after wheat challenge, n=16 subjects
Description: The issue of epitope redundancy and the potential utility in diagnostics and therapeutics of peptides designed to combine “unique” dominant epitopes was addressed by comparing interferon gamma ELISPOT responses after wheat (n=16 HLA DQ2 coeliac disease subjects), rye (n=17) or barley (n=13) challenge to the sequences: QLQPFPQPELPYPQPQL (SEQ ID NO: 1903) (“P04724E”), QPEQPFPQPEQPFPWQP (SEQ ID NO: 1904) (“626fEE”), and […] (SEQ ID NO: 1905) (“Combitope”). After rye and barley challenge the sum of the median ELISPOT responses (spot forming units) to P04724E and 626fEE were almost identical (99%, and 102%, respectively) to the response to a similar (optimal) concentration of the Combitope. However, after wheat challenge (n=16 subjects), median P04724E response was 89% of that to Combitope, and median 626fEE responses was 70% of the response to Combitope.

[2] = system: PBMC from HLA-DQ2+ subjects; test: Interferon gamma ELISPOT, initial gliadin epitope screening library; settings: 15 HLA-DQ2+ subjects, deamidated 20mers
Description: In initial experiments involving 29 HLA-DQ2+ individuals with coeliac disease on long-term gluten free diet, interferon-gamma ELISPOT assays were used to screen a previous Pepset (described in WO 03/104273, which is incorporated herein by reference) initially as pools of peptides and then in 15 subjects as individual peptides with and without deamidation by tTG. This Pepset library consisted of 652 20mer gliadin peptides spanning all unique 12mers contained within all Genbank entries described as wheat gliadins found in September 2001. This Pepset library was designed “manually” from gene-derived protein sequences aligned using ClustalW software (MegAlign) arranged into phylogenetic groupings.
Approximately 0.6 micromole of each of 652 of the 20mers was provided. Two marker 20mer peptides were included in each set of 96 ([…]—peptide 161 (SEQ ID NO: 1931), and […] (SEQ ID NO: 1932)) and were characterized by reverse phase-HPLC and amino acid sequence analysis. Average purities of these marker peptides were 19% and 50%, respectively. Peptides were initially dissolved in acetonitrile (10%) and Hepes 100 mM to 10 mg/ml. The final concentration of individual peptides incubated with PBMC for the IFNγ ELISpot assays was 20 mcg/ml. These peptides were deamidated by incubation with guinea pig tissue tTG (Sigma T5398) in the ratio 100:32 mcg/ml for two hours at 37° C. […]

[3] = system: PBMC from HLA DQ8+DQ2- CD subjects; test: Interferon gamma ELISPOT, glutenin 20mer library in HLA DQ8 subjects; settings: tTG-pretreated glutenin 20mers sharing the motif or sequence
Description: PBMC from two subjects initially challenged were used to screen the first round “Melbourne” wheat gliadin 20mer library. The 20mer sequences identified using PBMC from these two HLA DQ8 CD subjects were dissected further by screening, in five HLA DQ8+DQ2− CD subjects including the two original subjects, a second round library based on reactive 20mers in the 1st round library. The 2nd round library consisted of screening grade overlapping 16mers, and 13mers predicted to correspond to tTG-mediated deamidation products of epitopes with the potential for deamidation of glutamine at position 1 and/or position 9 (consistent with the HLA DQ8 peptide binding motif). In addition, the 1400 glutenin (HMW and LMW) tTG-pretreated 20mers in the “Melbourne” wheat gluten library were also screened in these five subjects.
Dominant 20mer peptides shared the motifs or had the sequences: PQQQQQQLVQQQ (SEQ ID NO: 1917), QGIFLQPH(LQ)I(AS)QLEV (SEQ ID NO: 1918), QPGQGQQG(HY)Y (SEQ ID NO: 1919), QSRYEAIRAII(FY)S (SEQ ID NO: 1920), RTTTSVPFD (SEQ ID NO: 1921), QPPFWRQQP (SEQ ID NO: 1922), Q(PS)(PS)(FI)(PS) QQQQ (SEQ ID NO: 1923), (QPLR)GYYPTSPQ (SEQ ID NO: 1924) (previously identified HLA DQ8 epitope, van der Wal 2001), QGSYYPGQASPQ (SEQ ID NO: 1925), […] (SEQ ID NO: 1926), and […] (SEQ ID NO: 1927). Glutenin peptides were assessed after pre-treatment with transglutaminase.

Row | Substance | sum of the median ELISPOT responses to P04724E and 626fEE relative to response to Combitope ([1]; after barley challenge, n=13) | sum of the median ELISPOT responses to P04724E and 626fEE relative to response to Combitope ([1]; after rye challenge, n=17) | median ELISPOT response as percent of response to Combitope [1] | potency rank in library [2] | dominance among five subjects [3]
1 | QLQPFPQPELPYPQPQL (Description of Artificial Sequence: Synthetic gluten peptide) [Peptide P04724E] | 102% | 99% | 89% |  | 
2 | PQPFPPQLPYPQPQLPYPQP (Description of Artificial Sequence: Synthetic gliadin peptide) [Peptide 91] |  |  |  | most potent gliadin 20mer | 
3 | QPEQPFPQPEQPFPWQP (Description of Artificial Sequence: Synthetic gluten peptide) [Peptide 626fEE] | 102% | 99% | 70% |  | 
4 | QPPFWRQQP (Description of Artificial Sequence: Synthetic gluten peptide) [motif of dominant glutenin 20mers, HLA DQ8] |  |  |  |  | dominant in at least one of the five subjects
5 | (QPLR)GYYPTSPQ: previously identified HLA DQ8 epitope, van der Wal 2001 [reference compound] |  |  |  |  | dominant in at least one of the five subjects
